Assay results: patent US6733986B1, “Method and agent for determining a deaminase enzymatic activity” (Bio Merieux, priority 1997, dated 2004)

What was measured:
[1] = system: strains which belong to the group Proteus; test: Example of a gelled medium with O-toluene-sulfonyl-L-tyrosine and iron citrate; type: cell-based; conditions: 0.5 g/l with iron citrate at 0.5 g/l in gelled medium; after 18 to 24 hours of incubation
Excerpt: As an example of a gelled medium, O-toluene-sulfonyl-L-tyrosine at 0.5 g/l and iron citrate at 0.5 g/l can be incorporated into the culture medium, in the following medium:
this medium being able to be inoculated with various Gram-negative or Gram-positive microorganisms.

[2] = system: bacteria belonging to the group Proteus; test: Differentiation of the group Proteus from other bacteria in liquid medium (Example 7); type: cell-based; conditions: after 48 hours
Method: Two media were prepared according to the usual techniques. […] The composition of the Media III and IV for one liter of final medium is as follows: [table] The pH of the media was adjusted to approximately 7.2. In Medium III, the detection agent for the enzymatic activity such as deaminase activity which was used is the natural amino acid L-histidine, at 1.5 g/l; in Medium IV, the detection agent for the enzymatic activity such as deaminase activity which is used is of [sic] N-toluene-sulfonyl-L-histidine, at 0.5 g/l. The media were distributed into test tubes, in a sterile manner. These two media were inoculated with the 12 bacterial strains described in Example 6. The tubes were incubated for 48 hours at 37° C., and were examined visually after 48 hours according to the following interpretation: the browning of the tube reflects the presence of an enzymatic activity such as deaminase activity, and thus of a bacterium of the group Proteus, the absence of browning signifies the absence of bacteria of the group Proteus.

Cc1ccc(S(=O)(=O)Oc2ccc(C[C@H](N)C(=O)O)cc2)cc1 [Example 2, 4-O-tosyl-L-tyrosine]
colour of colonies of strains of the group Proteus [1]: brown colonies

N[C@@H](Cc1c[nH]cn1)C(=O)O [L-histidine]
differentiation of bacteria of the group Proteus from those not belonging thereto [2]: high sensitivity and specificity
